Experimental data published in patent US20070037752A1, “Novel alanyl-amino peptidase inhibitors for functionally influencing different cells and treating immunological, inflammatory, neuronal, and other diseases” (priority 2003, published 2007).

biological target: alanyl aminopeptidases (APN) (Homo sapiens, UniProt P15144); assay: Inhibition of alanyl aminopeptidase enzymatic activity, fluorogenic substrate (Ala)2-rhodamine 110; type: biochemical; conditions: Table 3, starred values = ID50; read-out: ID50 APN (values marked with *)
Experimental: The inhibition characteristics measured are referred to as IC-50 values or ID50 values (the latter marked with “*”) for said enzyme. The enzymatic activity was determined by means of the fluorogenic substrate/product (Ala)2-rhodamine 110.

Chain of alanyl aminopeptidases (APN) (P15144 whole entry, species assumed): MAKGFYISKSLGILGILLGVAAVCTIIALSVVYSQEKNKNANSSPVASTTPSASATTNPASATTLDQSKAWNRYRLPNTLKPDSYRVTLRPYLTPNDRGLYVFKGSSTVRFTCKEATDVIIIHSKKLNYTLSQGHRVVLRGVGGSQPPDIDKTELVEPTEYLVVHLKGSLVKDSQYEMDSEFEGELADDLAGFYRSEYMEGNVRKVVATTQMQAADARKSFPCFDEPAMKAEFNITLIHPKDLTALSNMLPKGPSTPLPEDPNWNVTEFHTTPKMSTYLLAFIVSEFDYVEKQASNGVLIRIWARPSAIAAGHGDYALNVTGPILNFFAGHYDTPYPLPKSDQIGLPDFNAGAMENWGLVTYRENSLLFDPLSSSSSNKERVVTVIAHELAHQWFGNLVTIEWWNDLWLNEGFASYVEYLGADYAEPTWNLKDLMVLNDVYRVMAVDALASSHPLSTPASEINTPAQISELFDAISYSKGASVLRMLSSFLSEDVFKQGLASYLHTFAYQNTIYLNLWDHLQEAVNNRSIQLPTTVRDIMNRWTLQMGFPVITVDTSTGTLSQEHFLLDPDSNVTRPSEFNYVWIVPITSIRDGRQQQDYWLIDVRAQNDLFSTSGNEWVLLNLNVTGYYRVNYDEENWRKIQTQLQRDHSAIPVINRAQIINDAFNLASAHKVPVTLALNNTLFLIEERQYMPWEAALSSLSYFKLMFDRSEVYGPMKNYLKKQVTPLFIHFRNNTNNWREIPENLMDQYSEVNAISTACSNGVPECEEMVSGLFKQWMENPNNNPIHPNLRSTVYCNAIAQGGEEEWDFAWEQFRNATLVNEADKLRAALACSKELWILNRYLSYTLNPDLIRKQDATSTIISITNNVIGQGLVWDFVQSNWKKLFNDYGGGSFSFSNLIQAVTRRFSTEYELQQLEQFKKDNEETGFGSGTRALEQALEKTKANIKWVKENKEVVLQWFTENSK

IC50 [µM]	Structure (SMILES)
33.8	Cc1cccc(C(=O)Nc2ccc(C(=O)N/N=C/c3ccc4c(c3)OCO4)cc2)c1 [A3.203]
47.2	CC1=C(C#N)C(=O)N(CC(C)O)C(=O)/C1=C/c1ccc(-c2ccc(Br)cc2)o1 (centres unmarked) [A3.252]
48.1	O=C(O)CC1S/C(=N/N=C/c2ccco2)NC1=O (centres unmarked) [A3.254]
49.4	O=C(CNC(=O)c1ccccc1)N/N=C/c1ccco1 [A3.259]
53.2	Cc1ccc(Cn2c(SCCC(=O)O)nc3c2c(=O)[nH]c(=O)n3C)cc1 [A3.267]
55	Cc1ccc(/C=C(\NC(=O)c2ccccc2)C(=O)NCCN2CCOCC2)o1 [A3.273]
63.1	CC(=O)Nc1cccc(C(=O)N/N=C/c2ccc(C)o2)c1 [A3.285]
64.9	COc1ccc(C(=O)NCC(=O)N/N=C/c2ccco2)cc1OC [A3.288]
65.1	O=c1cc(CSc2nnc(-c3ccco3)c(-c3ccco3)n2)c2ccccc2[nH]1 [A3.289]
66	COc1ccc(CSCC(=O)N/N=C/c2ccco2)cc1 [A3.291]
67.1	Cc1cccc(C(=O)Nc2ccc(C(=O)N/N=C/c3ccco3)cc2)c1 [A3.293]

same assay, conditions: Table 3, unstarred values; read-out: IC50APN

IC50 [µM]	Structure (SMILES)
31.8	Cc1cc(C(=O)N/N=C/c2ccc(C)o2)[nH]n1 [A3.191]
31.9	O=C(CNC(=O)c1ccccc1Br)N/N=C/c1ccoc1 [A3.192]
32	CCCOC(=O)c1cc(-c2ccc(/C=C3/C(=O)N(CC(C)O)C(=O)C(C#N)=C3C)o2)ccc1Cl (centres unmarked) [A3.193]
32.1	Cc1ccc(C(=O)N/C(=C\c2ccco2)C(=O)N2CCCN(C)CC2)cc1C [A3.194]
32.1	Nc1nc2nc(-c3ccco3)cc(C(F)(F)F)n2n1 [A3.195]
32.4	O=C(CC(=O)N/N=C/c1ccco1)N/N=C/c1ccco1 [A3.196]
32.4	CC1=C(C#N)C(O)=NC(=O)/C1=C/c1ccc(-c2ccc(Cl)cc2Cl)o1 [A3.197]
32.5	Cc1ccc(C(=O)N/C(=C/c2ccco2)C(=O)N(C)C)cc1 [A3.198]
32.5	O=C(N/N=C/c1ccco1)c1ccc(NC(=O)c2ccccc2Cl)cc1 [A3.199]
32.8	CC(=O)N1CCOC1(C)c1ccc([N+](=O)[O-])cc1 (centres unmarked) [A3.200]
33.4	CCOc1ccc(-c2cc(C(=O)N/N=C/c3ccco3)[nH]n2)cc1OC [A3.201]
33.6	CCOC(=O)C1=C(N)NC2=C(CCCC2)C12C(=O)Nc1ccccc12 (centres unmarked) [A3.202]
33.9	Cc1ccccc1NC(=O)C1C(c2cccs2)C(C#N)=C(SCC(=O)Nc2ccc(Br)cc2)NC1(C)O (centres unmarked) [A3.204]
34	CC(C)C1N=C(Cc2cccnc2)N(CCCN2CCCC2=O)C1C(=O)NCc1ccccc1 (centres unmarked) [A3.205]
34	O=C(CCC(=O)Nc1cccc(Cl)c1)N/N=C/c1ccco1 [A3.206]
34.4	Cc1ccc(/C=N/NC(=O)c2ccc(F)cc2)o1 [A3.207]
34.5	CCOC(=O)C1CCN(C(=O)/C(=C/c2ccco2)NC(=O)c2ccc(C)c(C)c2)CC1 [A3.209]
34.7	O=C(Nc1ccccc1C(=O)N/N=C/c1ccco1)c1ccccc1Cl [A3.210]
34.7	COc1ccccc1C(=O)N/N=C/c1ccc(C)o1 [A3.211]
34.7	O=C(N/N=C/c1ccco1)c1cccc(I)c1 [A3.212]
34.7	CSc1nnc2n(/N=C/c3ccco3)cnn12 [A3.213]
35.5	CC(=O)n1cc(/C=C/C=N/NC(=O)CC#N)c2ccccc21 [A3.214]
35.7	COc1ccc(C2NCCS2)cc1Br (centres unmarked) [A3.215]

IC50 [µM]	Structure (SMILES)
36.1	COc1cc(-c2cc(C(=O)N/N=C/c3ccco3)[nH]n2)ccc1OC(C)C [A3.216a]
36.2	Cc1cccc(C(=O)Nc2cccc(C(=O)N/N=C/c3ccc(C)o3)c2)c1 [A3.216b]
36.3	COc1cc(Br)ccc1OCC(=O)N/N=C(C)/C=C/c1ccco1 [A3.217]
36.3	Cc1ccc(OCC(=O)N/N=C/c2ccco2)cc1C [A3.218]
36.3	CC(/C=N/NC(=O)C(O)c1ccccc1)=C\c1ccco1 (centres unmarked) [A3.219]
36.6	Cc1c(Cl)cccc1NC(=O)CCC(=O)N/N=C/c1ccco1 [A3.220]
36.8	CCCOC(=O)c1cc(-c2ccc(/C=C3\C(=O)NC(=O)C(C#N)=C3C)o2)ccc1Cl [A3.221]
36.6	O=[N+]([O-])c1ncn(CN2CCOCC2)n1 [A3.222]
36.9	O=C1C(Cc2ccc3[nH]ccc3c2)NC(=S)N1c1ccccc1 (centres unmarked) [A3.223]
37.2	CC1CCN(S(=O)(=O)c2ccc3c(c2)C(Cl)(Cl)C(=O)N3)CC1 [A3.224]
37.4	O=C(Nc1ccc(F)cc1)c1ccc([NH+]([O-])O)o1 (centres unmarked) [A3.226]
37.7	O=C(N/N=C/c1ccco1)c1ccccc1 [A3.227]
38.2	COc1ccc2ccccc2c1-c1cc(C(=O)N/N=C(\C)c2ccco2)[nH]n1 [A3.228]
38.3	O=C(N/N=C/c1ccco1)c1ccc(O)cc1O [A3.229]
38.4	CC(=O)Nc1ccc(C(=O)N/N=C/c2ccco2)cc1 [A3.230]
39.3	O=C(OCC1CCCO1)c1cc([N+](=O)[O-])cc([N+](=O)[O-])c1 (centres unmarked) [A3.231]
40.3	O=C(N/N=C/c1ccco1)c1ccn[nH]1 [A3.232]
41	CCOC(=O)c1cc(-c2ccc(/C=C3\C(=O)N(CCCO)C(=O)C(C#N)=C3C)o2)ccc1Cl [A3.233]
41.1	O=C(CCC(=O)Nc1ccccc1)N/N=C/c1ccco1 [A3.234]
41.1	O=[N+]([O-])c1ncn(CCBr)n1 [A3.235]
41.2	COc1ccc(C(=O)/C=C/c2ccc(-c3ccccc3)o2)cc1 [A3.236]
43.2	COc1ccc(OC)c(-c2cc(C(=O)N/N=C/c3ccco3)[nH]n2)c1 [A3.237]
43.3	O=C(Cn1cnc2ccccc21)N/N=C/c1ccco1 [A3.238]

IC50 [µM]	Structure (SMILES)
43.6	COC(=O)C(NC(=O)c1ccccc1)(Nc1sc2c(c1C#N)CCC(C(C)(C)C)C2)C(F)(F)F (centres unmarked) [A3.239]
44.2	O=C(/C=C/c1ccco1)Nc1cccc(C(=O)O)c1 [A3.240]
44.2	Cc1ccc(/C=N/NC(=O)c2ccc(N3CCCC3=O)cc2)o1 [A3.241]
44.2	O=C(N/N=C1/C(=O)Nc2ccc(F)cc21)/C(=C/c1ccccc1)NC(=O)c1ccccc1 [A3.242]
44.7	COc1ccccc1C(=O)N/N=C/c1ccco1 [A3.243]
45	CC1CCN(C(=O)/C(=C\c2ccco2)NC(=O)c2ccccc2)CC1 [A3.244]
45	Cc1ccc(/C=C/C(=O)Nc2ccccc2C(N)=O)o1 [A3.245]
45.4	Cc1ccccc1C(=O)Nc1ccc(C(=O)N/N=C/c2ccco2)cc1 [A3.246]
45.4	O=C(N/N=C/c1cccc([N+](=O)[O-])c1)c1ccco1 [A3.247]
46.6	CC(C)Oc1ccc(Br)cc1C(=O)N/N=C/c1ccco1 [A3.248]
46.6	Nc1nonc1-n1nnc(C(=O)N/N=C/c2ccco2)c1-c1ccccc1 [A3.249]
46.6	CCn1c(/C=C/c2ccco2)nc2ccccc21 [A3.250]
47	COc1ccc(N(C(C)C(=O)N/N=C/c2ccco2)S(C)(=O)=O)cc1 (centres unmarked) [A3.251]
47.3	O=C(COc1ccc2ccccc2c1Br)N/N=C/c1ccco1 [A3.253]
48.2	Cc1cc(C(=O)N/N=C/c2ccco2)[nH]n1 [A3.255]
48.4	CSCCC(Nc1ncnc2c1oc1ccccc12)C(=O)O (centres unmarked) [A3.256]
48.7	CCOC(=O)C(NC(=O)c1ccc(OC)cc1)(N1CCCC1=O)C(F)(F)F (centres unmarked) [A3.257]
49.5	O=C(C[N+](=O)[O-])C1=CC2OC=CC2N1 (centres unmarked) [A3.258]
49.9	CCOC(=O)c1cc(Br)ccc1-c1ccc(/C=C2\C(=O)N=C(O)C(C#N)=C2C)o1 [A3.260]
50	NC(=S)N/N=C/c1ccco1 [A3.261]
50.1	CCOC(=O)c1ncn(C)c1N [A3.262]
50.2	Cc1ccc(/C=N/NC(=O)c2cc(C)oc2C)o1 [A3.263]
50.3	CCCCCCCC(=O)N/N=C/c1ccco1 [A3.264]

IC50 [µM]	Structure (SMILES)
51.1	Cc1ccc(/C=N\NC(=O)Cc2cccs2)o1 [A3.265]
51.3	CC1CCc2c(sc(NC(=O)C(C(F)(F)F)C(F)(F)F)c2C#N)C1 (centres unmarked) [A3.266]
52.1	CCOC(=O)c1cc(-c2ccc(/C=C3/C(=O)NC(=O)C(C#N)=C3C)o2)ccc1Cl [A3.268]
50	CC(/C=C/c1ccco1)=N\NC(=O)COc1ccc(C(C)(C)C)cc1 [A3.269]
54	CCCOC(=O)c1cc(-c2ccc(/C=C3\C(=O)N(CCO)C(=O)C(C#N)=C3C)o2)ccc1Cl [A3.270]
54.2	O=C(N/N=C/c1cc(Br)ccc1OC(=O)c1ccc([N+](=O)[O-])cc1)/C(=C\c1ccc2c(c1)OCO2)NC(=O)c1ccccc1 [A3.271]
54.4	CC(=O)c1ccc(NC(=O)/C=C/c2ccc(C)o2)cc1 [A3.272]
55.6	O=C(CNS(=O)(=O)c1ccc2c(c1)OCCO2)N/N=C/c1ccco1 [A3.274]
55.8	O=C(NCCc1ccccc1)/C(=C\c1ccco1)NC(=O)c1ccccc1 [A3.275]
56.4	COc1ccccc1NC(=O)/C=C\c1ccco1 [A3.276]
56.8	COc1ccc(OC)c(NC(=O)/C=C/c2ccc(C)o2)c1 [A3.277]
58.3	C/C(=N\NC(=O)c1cc(-c2ccccc2)n[nH]1)c1ccco1 [A3.278]
58.4	CCOc1ccccc1NC(=O)c1c(NCc2cccc(OC)c2)sc2c1CCC2 [A3.279]
60	O=C(CNC(=O)c1ccccc1F)N/N=C/c1ccc([N+](=O)[O-])o1 [A3.280]
62.4	O=C(Nc1ccccc1F)c1ccc([N+](=O)[O-])o1 [A3.281]
62.7	O=C(N/N=C/C=C\c1ccco1)c1cccs1 [A3.282]
62.7	O=C(N/N=C/c1ccco1)c1cccc(Br)c1 [A3.283]
62.7	Cc1ccc(/C=N/NC(=O)COc2cccc(Cl)c2)o1 [A3.284]
65.8	Cc1nc(NC(C)C(=O)O)c2nc(C)oc2n1 (centres unmarked) [A3.290]
66.6	O=C1C(Cc2ccc(O)cc2)NC(=S)N1c1ccccc1 (centres unmarked) [A3.292]

Structure (SMILES)	IC50 [µM]
O=[N+]([O-])c1ccc(C2OCN3COCC23)cc1 (centres unmarked) [A3.287]	64.5
